# Reference: PMC4210147, “Sequence-Specific Dimerization of a Transmembrane Helix in Amphipol A8-35” (PLoS ONE, 2014)
# pKd: −log10 of the molar value.
# How the values were obtained:
# GpA TM helix dimer = conditions: ref [24], listed as GpA dimer; cited from earlier work
# Source text: Thermal denaturation of MPs often leads to irreversible aggregation of the MP, and guanidine hydrochloride and urea, which are frequently used in unfolding studies involving soluble proteins, do typically not denature the TM regions of MPs. This is why the thermodynamic stability of integral MPs within membrane-mimetic systems is often assessed by titrating increasing concentrations of the anionic detergent SDS to MPs dissolved in a mild detergent, such as DDM [24], [40]-[44]. SDS is able to form mixed micelles with other detergents typically used for MP solubilization. […] This indicates a strong destabilizati ...
# human GpA TM domain [1] = target: T1, human GpA TM domain (Homo sapiens, UniProt P02724); assay: Steady-state FRET, GpA TM helix dimerization in A8-35; assay type: binding; conditions: n = 3; for dimer fraction (in words): pH 7.4, 25°C
# T1 construct: purchased Peptide Specialty Laboratories, Heidelberg, Germany; host or cells: chemical synthesis (custom peptide)
# T1 sequence (P02724 88-120 limits assumed) 1: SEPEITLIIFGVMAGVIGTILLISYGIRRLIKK
# T1 sequence (P02724 88-120 limits assumed) 2: T1 sequence (P02724 88-120 limits assumed) 1
# Source text: Peptides corresponding to residues 69–101 of the human GpA TM domain ([…]) were custom-synthesized and labeled at the N-terminus with either the donor or the acceptor dyes fluorescein (FL) and 5-6-carboxyrhodamine (TAMRA), respectively (Peptide Specialty Laboratories, Heidelberg, Germany). The purity of the labelled peptides was confirmed by high-performance liquid chromatography (HPLC) and mass spectrometry. Based on this, the labeled peptides used in this study were>95% pure. Peptides were dissolved in 2,2,2-trifluoroethanol purchased from Sigma-Aldrich (Munich, Germany). APol A8-35 was purchased from Affymetrix (Santa Clara, USA) and sodium dodecyl sulfate (SDS) from Roth (Karlsruhe, Germany). N-dodecyl-β-D-maltopyranoside (DDM) was obtained from Sigma-Aldrich (Munich, Germany).
# (§1) For Förster resonance energy transfer (FRET) measurements, equal concentrations of FL- and TAMRA-labeled GpA TM domains were used. Concentrations of the peptide stock solutions were determined from absorbance measurements on a Perkin Elmer Lambda 35 UV/VIS spectrophotometer. In all experiments, we used 0.25 µM for each of the two labeled GpA peptides. Peptides dissolved in TFE and A8-35 dissolved in ethanol were mixed, and organic solvents were removed under a gentle stream of nitrogen gas. Residual solvent traces were removed by vacuum desiccation overnight. The dried peptide/polymer film was then hydrated in 10 mM HEPES buffer (pH 7.4) containing 150 mM NaCl.
# (§2) After at least 2 h of incubation at 37°C and 10 min of centrifugation at 16,000 g, steady-state fluorescence measurements were performed with the supernatant at 25°C on a Horiba Fluoromax 4 system with both excitation and emission slits at 3 nm. The excitation wavelength was set at 439 nm, and emission spectra were recorded from 480 to 650 nm. For FRET measurements with SDS, several concentrations of SDS, both below and above the CMC determined for the given buffer conditions, were used, and hydrated samples were incubated overnight.
# (§3) Energy transfer E was calculated using the donor fluorescence intensities at 525 nm in presence and absence of acceptor according to [drawing 1] (1)
# (§4) FD is the fluorescence intensity of the donor sample, and FDA is the fluorescence intensity of the sample containing donor and acceptor GpA TM domains at equal concentrations. The energy transfer of sequence-specific TM helix dimerization, ED, can be expressed as: [drawing 2] (2) where f D is the fraction of dimeric TM helices, P D is the probability of donor quenching when the peptides form a dimer, and E R is the energy transfer in the dimer.
# (§5) The probability P D of donor quenching depends on the molar ratio of the acceptor peptides [drawing 3] , where [a] and [d] are the concentrations of acceptor and donor peptides, respectively. If the distance of the fluorophores in the dimer is much smaller than the Förster radius, as is the case here, ER can be taken as unity.
# (§6) The fraction of dimers can be written as [drawing 4] , where [D] is the concentration of dimeric peptides and [T] the total peptide concentration.
# (§7) The dissociation constant, K D, is given by [drawing 6] (4) where the monomer concentration is [drawing 7] .
# human GpA TM domain [2] = target: T1, human GpA TM domain; assay: Steady-state FRET, GpA TM helix dimer dissociation upon addition of SDS (mixed A8-35/SDS aggregates); assay type: binding
# Procedure: as §1, §2, §3, §4, §5, §6, §7
# This indicates a strong destabilization of the GpA dimer after addition of SDS, resulting in dissociation of GpA TM dimers in mixed A8-35/SDS aggregates. […]
# Figure 6 Dissociation of the GpA TM domain in APol upon addition of SDS. […] SDS was added to preformed APol/GpA complexes, and emission spectra were recorded at 25°C after incubation at 37°C. […]
smiles,measurement,setting,value
CC[C@H](C)[C@H](NC(=O)CNC(=O)[C@H](Cc1ccc(O)cc1)NC(=O)[C@H](CO)NC(=O)[C@@H](NC(=O)[C@H](CC(C)C)NC(=O)[C@H](CC(C)C)NC(=O)[C@@H](NC(=O)[C@@H](NC(=O)CNC(=O)[C@@H](NC(=O)[C@@H](NC(=O)CNC(=O)[C@H](C)NC(=O)[C@H](CCSC)NC(=O)[C@@H](NC(=O)CNC(=O)[C@H](Cc1ccccc1)NC(=O)[C@@H](NC(=O)[C@@H](NC(=O)[C@H](CC(C)C)NC(=O)[C@@H](NC(=O)[C@@H](NC(=O)[C@H](CCC(=O)O)NC(=O)[C@@H]1CCCN1C(=O)[C@H](CCC(=O)O)NC(=O)[C@@H](N)CO)[C@@H](C)CC)[C@@H](C)O)[C@@H](C)CC)[C@@H](C)CC)C(C)C)C(C)C)[C@@H](C)CC)[C@@H](C)O)[C@@H](C)CC)[C@@H](C)CC)C(=O)N[C@@H](CCCNC(=N)N)C(=O)N[C@@H](CCCNC(=N)N)C(=O)N[C@@H](CC(C)C)C(=O)N[C@H](C(=O)N[C@@H](CCCCN)C(=O)N[C@@H](CCCCN)C(=O)O)[C@@H](C)CC [GpA TM domain],dissociation of GpA dimer in mixed DDM/SDS micelles,GpA TM helix dimer,completely unfolded
same,dimer fraction,"human GpA TM domain [1]; 25 µM A8-35, FL- and TAMRA-labeled GpA 0.25 µM each, 10 mM HEPES pH 7.4, 150 mM NaCl, incubated at least 2 h at 37°C, measured at 25°C",about 0.65
same,GpA dimer dissociation at relatively higher A8-35 concentrations,"human GpA TM domain [1]; A8-35 range 5 to 75 µM, in contrast to detergents",do not seem to fully dissociate the GpA dimer
same,dimer fraction (in words),"human GpA TM domain [1]; above 25 µM A8-35 (to 75 µM), FL- and TAMRA-labeled GpA 0.25 µM each",decreased only faintly with increasing polymer concentrations
same,dimer fraction (in words),"human GpA TM domain [1]; low A8-35 concentrations (range 5 to 75 µM), FL- and TAMRA-labeled GpA 0.25 µM each",Almost all peptides were dimeric
same,pKd,"human GpA TM domain [1]; tested A8-35 range 5 to 75 µM, total labeled peptide 0.5 µM, 10 mM HEPES pH 7.4, 150 mM NaCl, 25°C, read-out: apparent dissociation constant K_D of GpA TM dimer",> 6.52
same,complete unfolding of GpA dimer in APol/SDS mixed micelles,"human GpA TM domain [2]; 20 µM A8-35 with SDS, analyzed concentration range, compared with DDM/SDS",not observed in case of APol/SDS mixed micelles
same,fraction of dimeric GpA,"human GpA TM domain [2]; SDS exceeding 1.5 mM, 20 µM A8-35, 0.5 µM labeled GpA TM domain, 25°C, n = 3",about 0.3
same,increase in the dissociation constant upon SDS addition,"human GpA TM domain [2]; no SDS vs SDS exceeding 1.5 mM, 20 µM A8-35, 0.5 µM labeled GpA TM domain, 25°C, n = 3",about one order of magnitude
same,fraction of dimeric GpA,"human GpA TM domain [2]; no SDS, 20 µM A8-35, 0.5 µM labeled GpA TM domain, 25°C, n = 3",0.7
